Results as given in patent US20140057915A1, “KINASE INHIBITORS” (TOPIVERT PHARMA LIMITED, priority 2012, published 2014).

What was measured:
cSrc = cSrc (Homo sapiens, UniProt P12931); assay: c-Src enzyme inhibition (FRET); format: biochemical; conditions: Table 4a2, different laboratory
How it was run: (§1)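 Enzyme was preincubated with test compound (added as 4, 0.4, 0.04 or 0.004 μg/mL solutions) for 2 hr at RT. FRET peptide (8 μM solution) and ATP solution (800 μM for c-Src, 60 μM for Syk) were then added for 1 hr, followed by 1 hr protease development.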

Syk = Syk (Homo sapiens, UniProt P43405); assay: Syk enzyme inhibition (FRET); format: biochemical; conditions: Table 4a2, different laboratory
How it was run: as §1

GSK3α = GSK3α (Homo sapiens, UniProt P49840); assay: GSK 3α enzyme inhibition (FRET), Method 2; format: biochemical; conditions: Table 4a2, different laboratory
GSK3α, sequence (P49840 whole entry): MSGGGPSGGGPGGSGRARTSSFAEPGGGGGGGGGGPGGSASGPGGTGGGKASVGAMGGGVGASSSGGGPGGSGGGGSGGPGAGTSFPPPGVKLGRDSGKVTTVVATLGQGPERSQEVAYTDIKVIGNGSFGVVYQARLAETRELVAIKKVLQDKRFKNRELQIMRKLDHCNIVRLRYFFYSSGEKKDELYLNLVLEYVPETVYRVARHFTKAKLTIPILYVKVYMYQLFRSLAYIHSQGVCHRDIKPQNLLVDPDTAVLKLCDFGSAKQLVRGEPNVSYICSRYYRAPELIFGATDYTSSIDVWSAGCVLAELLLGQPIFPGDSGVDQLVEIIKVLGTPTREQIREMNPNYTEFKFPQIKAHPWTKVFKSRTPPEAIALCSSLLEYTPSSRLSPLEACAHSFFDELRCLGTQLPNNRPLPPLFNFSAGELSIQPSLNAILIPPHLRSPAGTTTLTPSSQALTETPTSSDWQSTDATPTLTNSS

[1] = system: TNFα release, d-U937 cells; assay: LPS-induced TNFα release in d-U937 cells; format: cell-based; conditions: Homo sapiens, dU937; Table 4c2, different laboratory; read-out: IC50 Values for Inhibition of Cytokine Release, dU937 cells, TNFα
How it was run: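 U937 cells differentiated with PMA (100 ng/mL, 48–72 hr), pre-treated with compound for 2 hr, then stimulated with E. coli LPS (0.1 μg/mL) for 4 hr. Supernatant cytokine measured by sandwich ELISA; inhibition versus vehicle control, REC50 from concentration-response curve.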

[2] = system: IL-8 release, d-U937 cells; assay: LPS-induced IL-8 release in d-U937 cells; format: cell-based; conditions: Homo sapiens, dU937; Table 4c2, different laboratory; read-out: IC50 Values for Inhibition of Cytokine Release, dU937 cells, IL-8
How it was run: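 IL-8 release after a 4 hr challenge with LPS (0.1 μg/mL, E. coli 0111:B4) following a 2 hr compound pretreatment. Cells were human U937 monocytes differentiated to macrophage-type with PMA 100 ng/mL for 48–72 hr. Relative 50% effective concentration derived from concentration–response data.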

IL-8 release, PBMCs = assay: LPS-induced IL-8 release in PBMC cells; format: cell-based; conditions: Homo sapiens, LPS stimulated, read-out: IC50 Values for Inhibition of Cytokine Release, PBMCs, IL-8
How it was run: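 PBMCs from healthy donors pretreated with compound for 2 h, then stimulated with 1 ng/ml LPS (E. coli 0111:B4) for 24 h at 37 °C, 5% CO2. Supernatant IL-8 and TNFα measured by sandwich ELISA with fluorescence read-out.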

IL-2 release, PBMCs = assay: IL-2 release in CD3/CD28 stimulated PBMC cells; format: cell-based; conditions: Homo sapiens, read-out: IC50 Values for Inhibition of Cytokine Release, PBMCs, IL-2
Method: (§2) (c) IL-2 and IFN Gamma Release in CD3/CD28 Stimulated PBMC Cells
(§3) PBMCs from healthy subjects are separated from whole blood using a density gradient (Lymphoprep, Axis-Shield Healthcare). Cells are added to a 96 well plate pre-coated with a mixture of […] monoclonal antibodies (0.3 ug/ml eBioscience and 3 ug/ml BD Pharmingen respectively). Compound at the desired concentration is then added to the wells and the plate left for 3 days under normal tissue culture conditions. Supernatants are harvested and IL-2 and IFN gamma release determined by Sandwich ELISA (Duo-set, R&D System). The IC50 is determined from the dose response curve.

IFN gamma release, PBMCs = assay: IFN gamma release in CD3/CD28 stimulated PBMC cells; format: cell-based; conditions: Homo sapiens, read-out: IC50 Values for Inhibition of Cytokine Release, PBMCs, IFNγ
Method: as §2, §3

IL-8 release, HT29 cells = assay: IL-1β-induced IL-8 release in HT29 cells; format: cell-based; conditions: Homo sapiens, HT-29; IL-1β stimulated; read-out: IC50 Values for Inhibition of Cytokine Release, HT29 cells, IL-8
Method: (d) IL-1β-Induced IL-8 Release in HT29 Cells
HT29 cells, a human colon adenocarcinoma cell line, are plated in a 96 well plate (24 hrs) and pre-treated with compounds at the desired concentration for 2 hours before addition of 5 ng/ml of IL-1β (Abeam) for 24 hours, Supernatants are harvested for IL-8 quantification by Sandwich ELISA (Duo-set, R&D System). The IC50 is determined from the dose response curve.

PBMC cells = assay: Cell mitosis assay; format: cell-based; conditions: Homo sapiens, read-out: % Inhibition of mitosis in PBMC cells at 5 μg/mL
How it was run: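 Healthy-donor PBMCs (3 million cells per sample) stimulated with 2% PHA for 48 hr, then exposed 20 hr to varying compound concentrations. Demecolcine (0.1 μg/mL) added 2 hr before collection to arrest cells in metaphase; read by flow cytometry gated on lymphocytes.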

[3] = biological target: T1, human ether a go-go (hERG) channel (Homo sapiens, UniProt Q12809); assay: hERG inhibition (IonWorks patch clamp electrophysiology); format: cell-based; conditions: maximum final assay concentration 3 μM
T1 construct: a Chinese Hamster Lung cell line stably expressing the full length hERG channel
T1 sequence (Q12809 whole entry): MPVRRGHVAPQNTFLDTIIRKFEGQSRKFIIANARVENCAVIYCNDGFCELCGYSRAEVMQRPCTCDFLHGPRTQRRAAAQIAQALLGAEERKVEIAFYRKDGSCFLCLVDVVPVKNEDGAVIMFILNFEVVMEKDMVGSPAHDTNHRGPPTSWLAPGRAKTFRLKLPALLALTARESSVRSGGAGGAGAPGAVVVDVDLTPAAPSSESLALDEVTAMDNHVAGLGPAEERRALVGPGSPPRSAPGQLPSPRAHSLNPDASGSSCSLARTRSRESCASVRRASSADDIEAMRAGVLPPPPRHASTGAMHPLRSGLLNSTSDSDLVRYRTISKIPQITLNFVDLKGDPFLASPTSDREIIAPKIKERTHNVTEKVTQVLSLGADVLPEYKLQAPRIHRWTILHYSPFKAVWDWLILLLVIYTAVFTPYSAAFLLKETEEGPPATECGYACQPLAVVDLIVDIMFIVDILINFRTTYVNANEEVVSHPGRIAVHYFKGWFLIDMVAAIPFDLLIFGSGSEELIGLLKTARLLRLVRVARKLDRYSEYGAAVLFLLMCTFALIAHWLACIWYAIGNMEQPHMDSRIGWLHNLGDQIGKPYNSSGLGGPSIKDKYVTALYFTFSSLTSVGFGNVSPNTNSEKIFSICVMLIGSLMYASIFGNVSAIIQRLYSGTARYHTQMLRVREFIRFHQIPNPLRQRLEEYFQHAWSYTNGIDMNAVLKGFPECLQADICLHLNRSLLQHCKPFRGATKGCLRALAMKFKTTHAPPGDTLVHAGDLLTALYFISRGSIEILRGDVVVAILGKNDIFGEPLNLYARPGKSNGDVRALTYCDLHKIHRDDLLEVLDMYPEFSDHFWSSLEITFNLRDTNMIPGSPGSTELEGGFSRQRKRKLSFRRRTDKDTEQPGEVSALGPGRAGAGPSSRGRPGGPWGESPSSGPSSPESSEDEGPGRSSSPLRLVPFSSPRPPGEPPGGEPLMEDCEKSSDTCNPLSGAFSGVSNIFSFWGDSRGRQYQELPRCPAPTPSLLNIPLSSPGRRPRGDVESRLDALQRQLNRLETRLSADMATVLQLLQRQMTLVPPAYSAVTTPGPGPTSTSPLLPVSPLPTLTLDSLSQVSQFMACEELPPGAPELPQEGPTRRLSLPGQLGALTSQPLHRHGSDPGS
Method: Eight-point concentration curves were generated using serial 3-fold dilutions from the maximum final assay concentration (3 μM). Electrophysiological recordings were made from a Chinese Hamster Lung cell line stably expressing the full length hERG channel. Single cell ionic currents were measured in the perforated patch clamp configuration (100 μg/mL) amphotericin) at room temperature (21-23° C.) using an IonWorks Quattro instrument. The internal solution contained (mM): 140 KCl, 1 MgCl2, 1 EGTA, 20 HEPES and was buffered to pH 7.3. The external solution contained (mM):138 NaCl, 2.7 KCl, 0.9 CaCl2, 0.5 MgCl2, 8 Na2HPO4, 1.5 KH2PO4, also buffered to pH 7.3. Cells were clamped at a holding potential of −70 mV for 30 s and then stepped to +40 mV for 1 s. This was followed by a hyperpolarising step of 1s to −30 mV to evoke the hERG tail current. This sequence was repeated 5 times at a frequency of 0.25 Hz. Currents were measured from the tail step at the 5th pulse, and referenced to the holding current. Compounds were then incubated for 6-7 minutes prior to a second measurement of the hERG signal using an identical pulse train. Eight-point concentration curves were generated using serial 3-fold dilutions from the maximum final assay concentration (3 μM).

cSrc, sequence (P12931 whole entry): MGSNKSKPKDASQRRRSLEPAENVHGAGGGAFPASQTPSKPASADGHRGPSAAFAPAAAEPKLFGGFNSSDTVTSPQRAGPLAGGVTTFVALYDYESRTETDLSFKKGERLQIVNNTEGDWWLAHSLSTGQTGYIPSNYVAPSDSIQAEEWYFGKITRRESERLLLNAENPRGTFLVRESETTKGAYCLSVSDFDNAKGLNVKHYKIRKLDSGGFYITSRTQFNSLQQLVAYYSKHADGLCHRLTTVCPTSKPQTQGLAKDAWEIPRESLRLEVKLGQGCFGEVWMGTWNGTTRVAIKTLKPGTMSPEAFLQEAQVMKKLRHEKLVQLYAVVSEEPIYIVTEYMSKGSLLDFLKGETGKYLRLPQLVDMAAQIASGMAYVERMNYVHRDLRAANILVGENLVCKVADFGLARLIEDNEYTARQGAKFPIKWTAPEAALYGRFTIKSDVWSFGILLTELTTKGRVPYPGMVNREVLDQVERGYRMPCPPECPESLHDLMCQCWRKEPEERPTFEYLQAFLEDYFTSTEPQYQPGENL

C#Cc1cc(Nc2nccc(Oc3ccc(NC(=O)Nc4cc(C(C)(C)C)nn4-c4ccc(C)cc4)c4ccccc34)n2)cc(C(=O)N[C@@H](C)CN2CCOCC2)c1 [Example 81, (S)-3-((4-((4-(3-(3-(tert-Butyl)-1-(p-tolyl)-1H-pyrazol-5-yl)ureido)naphthalen-1-yl)oxy)pyrimidin-2-yl)amino)-5-ethynyl-N-(1-morpholinopropan-2-yl)benzamide]
IC50 (cSrc): 21 nM | IC50 (Syk): 61 nM | IC50 (GSK3α): 10400 nM | IC50 [1]: 1.4 nM | IC50 [2]: 1.5 nM | IC50 (IL-8 release, PBMCs): 3.2 nM | IC50 (IL-2 release, PBMCs): 112 nM | IC50 (IFN gamma release, PBMCs): 1.8 nM | IC50 (IL-8 release, HT29 cells): 7.4 nM | inhibition at 5 µg/mL (PBMC cells): -2.6% | IC50 [3]: > 3000 nM

C#Cc1cc(Nc2nccc(Oc3ccc(NC(=O)Nc4cc(C(C)(C)C)nn4-c4ccc(C)cc4)c4ccccc34)n2)cc(C(=O)NCCN2CCOCC2)c1 [Example 75, 3-((4-((4-(3-(3-(tert-Butyl)-1-(p-tolyl)-1H-pyrazol-5-yl)ureido)naphthalen-1-yl)oxy)pyrimidin-2-yl)amino)-5-ethynyl-N-(2-morpholinoethyl)benzamide]
IC50 (cSrc): 11 nM | IC50 (Syk): 28 nM | IC50 (GSK3α): 1370 nM | IC50 [1]: 0.4 nM | IC50 [2]: 0.3 nM | IC50 (IL-8 release, PBMCs): 1 nM | IC50 (IL-2 release, PBMCs): 76.9 nM | IC50 (IFN gamma release, PBMCs): 3 nM | IC50 (IL-8 release, HT29 cells): 1.3 nM | inhibition at 5 µg/mL (PBMC cells): 2.8% | IC50 [3]: > 3000 nM
